In general, pIC50 refers to the IC50 on a negative log10 scale, so that one unit is a factor of ten. Lower therefore signals a high IC50.

pIC50: −log10 of the molar value.

Assay type in all cases: cell-based
The test system of test [1] is TNFα production in human whole blood. Description: R848 induced TNFα production in human whole blood. The conditions noted are these: 1 uM R848, 20 hours. As to the method:
(§1) Compounds of the present invention were also studied in in vitro cytokine production assays. Exemplary protocols follow.
(§2) Human whole blood and hWBC assays: Human whole blood was diluted by combining whole blood with no serum RPMI medium at a ratio of 1:1. 180 ul/well of the diluted whole blood/well was added to a 96 well plate. For WBC assay 100,000 cells/well were seeded in a 96-well plate with a volume of 100 ul/well. To make the compound master plate 9 ul of 30 mM compound solution was added into the wells in the assigned rows, then serial solutions with 4x dilutions were made in DMSO. That is, 9 uL of 100% DMSO were added into each of the rest wells and 3 uL of compound solution was taken from the one-step higher concentration solution and mixed well with the DMSO. An intermediate compound dilution plate was made by mixing 4 uL of the compound solution from the compound master plate with 196 uL of no serum RPMI medium. hWBC or human whole blood was treated for 0.5 hour by adding 20 uL/well of the compound and the control solutions from the intermediate compound plate to the cell plate. 80 uL/well or 20 uL/well of stimulant were then added to the human whole blood or hWBC respectively. […] The supernatants were then collected and cytokine levels were measured with ELISA for TNFα (R&D Systems, #DY210) and IFNα (R&D Systems, #41100-2) per manufacturer's instruction.

For test [2] the test system is unchanged. The test can be described thus: LPS induced TNFα production in human whole blood. The following applies: 1 ug/mL LPS, 20 hours. As to the method:
as §1, §2

Test [3] deals with TNFα production in human white blood cells (hWBC). Description: R848 induced TNFα production in hWBC. The following applies: 1 uM R848, 20 hours. As to the method: as §1, §2
Test [4] relates to IFNα production in human whole blood. Description: R848 induced IFNα production in human whole blood. The conditions noted are these: 0.2 uM R848, 20 hours. As for the experimental part:
as §1, §2

Test [5] has as its system IL8 production in THP-1 cells. Description: LPS induced IL8 production assay in THP-1 cells. The following applies: Homo sapiens, 300 ng/mL LPS, measured at 16 hours. As for the experimental part: (§3) Provided compounds were also assayed in an LPS (Lipopolysaccharide) or R848 (TLR-7 agonist) induced cytokine (TNFα and IL8) production assay in THP-1 cells, human white blood cells (hWBC), and human whole blood. The exemplary protocol for this assay in THP-1 cells was as follows below.
(§4) THP-1 cells from ATCC (TIB-202) were cultured in RPMI Medium 1640 (Invitrogen, Cat No. A10491-01), 10% fetal bovine serum (Invitrogen, Cat No. 10099141, Lot No. 8172882) containing 100 U/mL Penicillin, 100 μg/mL streptomycin (Invitrogen, Cat No. 15140-122), and 50 uM 2-Mercaptoethanol (Invitrogen, Cat No. 21985023). LPS-EK ultra pure (Invivogen, Cat No. tlrl-peklps) was used to induce IL8 and TNFα production, that was detected in the cell culture supernatant by IL8 HTRF kit (Cisbio, Cat No. 62IL8PEB) and TNFα HTRF kit (Cisbio, Cat No. 62TNFPEB), as per manufacturer instructions. Cells were cultured in 96 well assay plates at 100,000 cells per well, and compounds diluted in final 0.3% DMSO were pre-incubated with cells for 1 hour prior to stimulation with 300 ng/mL LPS. Cytokine production in cell supernatant was measured at 5 hours for TNFα production, and at 16 hours for IL8 production and assessment of cell viability.
(§5) The compound numbers correspond to the compound numbers in Table 1. Compounds having an activity designated as “A” provided an IC50≦0.5 μM; compounds having an activity designated as “B” provided an IC50 of 0.5-5.0 μM; compounds having an activity designated as “C” provided an IC50>5.0 μM. “NA” stands for “not assayed.”

Test [6] has as its system TNFα production in THP-1 cells. Description: LPS induced TNFα production assay in THP-1 cells. The following applies: Homo sapiens, 300 ng/mL LPS, measured at 5 hours. As to the method:
as §3, §4, §5

With `N#Cc1ccc2ncnc(N[C@H]3CC[C@H](N4CCOCC4)CC3)c2c1` [Compound I-3, 4-(((1r,4r)-4-morpholinocyclohexyl)amino)quinazoline-6-carbonitrile], the negative-log IC50 (pIC50) was 6.00 to 6.60 in test [1]; not below 6.60 in test [2]; not below 6.60 in test [3]; 6.00 to 6.60 in test [4]; not below 6.30 in test [5]; not below 6.30 in test [6].

On to `N#Cc1ccc2ncnc(N[C@H]3CC[C@H](N4CCC5(CC4)CC5)CC3)c2c1` [Compound I-7, 4-(((1r,4r)-4-(6-azaspiro[2.5]octan-6-yl)cyclohexyl)amino)-quinazoline-6-carbonitrile], for which the negative logarithm of the IC50 (pIC50) in test [1] is not below 6.60; in test [2] it was not below 6.60; in test [3], not below 6.60; in test [4], 6.00 to 6.60; in test [5], not below 6.30; in test [6], not below 6.30.

Source of the values: US20150329498A1, “IRAK INHIBITORS AND USES THEREOF” (Nimbus Iris, Inc., priority 2014, published 2015).
